Key:
[1] = test system: E. coli UBMS 88-1 Tet B; assay: microbe, parasite or virus in culture; assay type: cell-based; details: E. coli UBMS 88-1 Tet B; 18 hours at 35° C.
[2] = test system: E. coli J3272 Tet sens.; assay: MIC, agar dilution; assay type: cell-based
[3] = test system: E. coli PRP1 Tet A; assay: microbe, parasite or virus in culture; assay type: cell-based; details: E. coli PRP1 Tet A
[4] = test system: E. coli MC 4100 TNIOC Tet B; assay: microbe, parasite or virus in culture; assay type: cell-based; details: E. coli MC 4100 TNIOC Tet B
[5] = test system: E. coli UBMS 89-1 Tet M; assay: microbe, parasite or virus in culture; assay type: cell-based; details: E. coli UBMS 89-1 Tet M
[6] = test system: E. coli UBMS 89-2 Tet sens.; assay: MIC, agar dilution; assay type: cell-based; details: E. coli UBMS 89-2 Tet sens.
[7] = test system: E. coli UBMS 90-4 Tet M; assay: microbe, parasite or virus in culture; assay type: cell-based; details: E. coli UBMS 90-4 Tet M
[8] = test system: E. coli UBMS 90-5; assay: MIC, agar dilution; assay type: cell-based
[9] = test system: E. coli J3272 Tet D; assay: microbe, parasite or virus in culture; assay type: cell-based; details: E. coli J3272 Tet D
[10] = test system: S. mariescens FPOR 8733; assay: MIC, agar dilution; assay type: cell-based
[11] = test system: Ps. acruginosa ATCC 27853; assay: MIC, agar dilution; assay type: cell-based; details: Ps. acruginosa ATCC 27853
[12] = test system: S. aureus UBMS 88-4; assay: MIC, agar dilution; assay type: cell-based; details: S. aureus UBMS 88-4
[13] = test system: S. aureus UBMS 88-7 Tet K; assay: microbe, parasite or virus in culture; assay type: cell-based; details: S. aureus UBMS 88-7 Tet K
[14] = test system: S. aureus UBMS 90-1 Tet M; assay: microbe, parasite or virus in culture; assay type: cell-based; details: S. aureus UBMS 90-1 Tet M
[15] = test system: S. aureus UBMS 90-3; assay: MIC, agar dilution; assay type: cell-based; details: S. aureus UBMS 90-3
[16] = test system: S. aureus UBMS 90-2 Tet M; assay: microbe, parasite or virus in culture; assay type: cell-based; details: S. aureus UBMS 90-2 Tet M
[17] = test system: S. aureus IVES 2943; assay: MIC, agar dilution; assay type: cell-based; details: S. aureus IVES 2943
[18] = test system: S. aureus ROSE (MP); assay: MIC, agar dilution; assay type: cell-based; details: S. aureus ROSE (MP)
[19] = test system: S. aureus SMITH (MP); assay: MIC, agar dilution; assay type: cell-based; details: S. aureus SMITH (MP)
[20] = test system: S. aureus IVES 1 983; assay: MIC, agar dilution; assay type: cell-based; details: S. aureus IVES 1 983
[21] = test system: S. hemolyticus AVHAH 88-3; assay: MIC, agar dilution; assay type: cell-based; details: S. hemolyticus AVHAH 88-3
[22] = test system: Staphylococcus aureus strain Smith (tetracycline sensitive); assay: In vivo antibacterial evaluation, acute lethal infection in mice; details: animals infected with S. aureus Smith, 10080 min
[23] = test system: the ribosome; assay: Reversibility of binding: bacterial growth resumes after washing; assay type: cell-based; details: bacterial growth resumes when the compound is removed from the cultures by washing
Source text: Therefore, the ability of these compounds to inhibit bacterial growth appears to be a direct consequence of its ability to inhibit protein synthesis at the ribosome level.

[24] = test system: tetracycline sensitive and resistant Gram-positive and Gram-negative bacteria; assay: In vitro antibacterial activity, summary in words of Table I; assay type: cell-based; details: for in vitro activity against tetracycline resistant strains containing tetM and tetB resistance determinants: S. aureus UBMS 88-5, 90-1, 90-2, E. coli UBMS 89-1, 90-4, 88-1, TN10C tetB; for activity against recently isolated bacteria from clinical sources compared with minocycline: clinical isolates
[25] = test system: Wild Type S30 (wild type ribosomes, E. coli strain MRE600, tetracycline sensitive); assay: E. coli in vitro protein translation system, wild type S30; details: for inhibition of protein synthesis occuring on wild type ribosomes: coupled transcription and translation system
[26] = test system: E. coli J3272 Tet C; assay: microbe, parasite or virus in culture; assay type: cell-based; details: E. coli J3272 Tet C
[27] = test system: E. coli J2175; assay: MIC, agar dilution; assay type: cell-based; details: E. coli J2175
[28] = test system: E. coli BAJ9003 IMP MUT; assay: microbe, parasite or virus in culture; assay type: cell-based; details: E. coli BAJ9003 IMP MUT
[29] = test system: E. coli #311 (MP); assay: MIC, agar dilution; assay type: cell-based; details: E. coli #311 (MP)
[30] = test system: E. coli ATCC 25922; assay: MIC, agar dilution; assay type: cell-based; details: E. coli ATCC 25922
[31] = test system: S. aureus NEMC 8769; assay: MIC, agar dilution; assay type: cell-based; details: S. aureus NEMC 8769
[32] = test system: S. aureus UBMS 88-5 Tet M; assay: microbe, parasite or virus in culture; assay type: cell-based; details: S. aureus UBMS 88-5 Tet M
[33] = test system: S. aureus ATCC 29213; assay: MIC, agar dilution; assay type: cell-based; details: S. aureus ATCC 29213
[34] = test system: Enterococcus 12201; assay: MIC, agar dilution; assay type: cell-based; details: Enterococcus 12201

Compound | MIC [1] | MIC [2] | MIC [3] | MIC [4] | MIC [5] | MIC [6] | MIC [7] | MIC [8] | MIC [9] | MIC [10] | MIC [11] | MIC [12] | MIC [13] | MIC [14] | MIC [15] | MIC [17] | MIC [18] | MIC [20] | MIC [21] | reversibility of binding to the ribosome [23] | also measured
CC1CCN(CC(=O)Nc2cc(N(C)C)c3c(c2O)C(=O)C2=C(O)C4(O)C(=O)C(C(N)=O)=C(O)C(N(C)C)C4CC2C3)CC1.Cl.Cl (stereo not drawn) [G, [7S-(7alpha,10aalpha)]-N-[9-(Aminocarbonyl)4,7-bis(dimethylamino)-5,5a,6,6a,7,10,10a,12-octahydro-1,8,10a,ll-tetrahydroxy-10,12-dioxo-2-naphthacenyl]-4-methyl-l-piperidineacetamide dihydrochloride] | 2 µg/mL | 1 µg/mL | 2 µg/mL | 2 µg/mL | 0.5 µg/mL | 2 µg/mL | 1 µg/mL | 2 µg/mL | 0.25 µg/mL | 16 µg/mL | 32 µg/mL | 0.5 µg/mL | 0.5 µg/mL | 0.5 µg/mL | 0.5 µg/mL | 0.5 µg/mL | 1 µg/mL | 0.5 µg/mL | 1 µg/mL | bind reversibly | MIC [16]: 0.5 µg/mL; MIC [19]: 0.5 µg/mL; ED50 ([22]; administered intravenously): 1 to 2 mg/kg; ED50 ([22]; given orally): 4 to 8 mg/kg; activity against E. coli tetA, E. coli tetC and E. coli tetD [24]: good activity; in vitro activity against tetracycline resistant strains containing tetM and tetB resistance determinants [24]: excellent; activity against recently isolated bacteria from clinical sources compared with minocycline [24]: superior to that of minocycline; activity against susceptible strains compared with minocycline [24]: equallyas effective as minocycline; % Inhibition Wild Type S30 ([25]; Conc. 0.06 mg/ml): 90%; % Inhibition Wild Type S30 ([25]; Conc. 1.0 mg/ml): 99%; inhibition of protein synthesis occuring on wild type ribosomes [25]: effectively inhibit protein synthesis
[4S-(4alpha,12aalpha)]-4,7-Bis(dimethylamino)-1,4,4a,5,5a,6,11,12a-octahydro-3,10, 12,12a-tetrahydroxy-1,11-dioxo-9-[[(2-propenylamino)acetyl]amino]-2-naphthacenecarboxamide dihydrochloride | 1 µg/mL | 0.5 µg/mL | 8 µg/mL | 1 µg/mL | 0.5 µg/mL | 0.5 µg/mL | 0.5 µg/mL | 0.5 µg/mL | 0.25 µg/mL | 8 µg/mL | 16 µg/mL | 0.25 µg/mL | 8 µg/mL | 0.5 µg/mL | 0.25 µg/mL | 8 µg/mL | 8 µg/mL | 8 µg/mL | 0.5 µg/mL | bind reversibly | MIC [26]: 1 µg/mL; MIC [27]: 0.5 µg/mL; MIC [28]: 0.12 µg/mL; MIC [29]: 0.5 µg/mL; MIC [30]: 0.5 µg/mL; MIC [31]: 0.12 µg/mL; MIC [32]: 0.25 µg/mL; MIC [33]: 0.25 µg/mL; MIC [34]: 0.25 µg/mL; activity against E. coli tetA, E. coli tetC and E. coli tetD [24]: good activity; in vitro activity against tetracycline resistant strains containing tetM and tetB resistance determinants [24]: excellent; activity against recently isolated bacteria from clinical sources compared with minocycline [24]: superior to that of minocycline; activity against susceptible strains compared with minocycline [24]: equallyas effective as minocycline; % Inhibition Wild Type S30 ([25]; Conc. 0.06 mg/ml): 93%; % Inhibition Wild Type S30 ([25]; Conc. 1.0 mg/ml): 99%; inhibition of protein synthesis occuring on wild type ribosomes [25]: effectively inhibit protein synthesis
